ChEMBL document CHEMBL5316313, “Discovery of Novel 3-Phenylpiperidine Derivatives Targeting the β-Catenin/B-Cell Lymphoma 9 Interaction as a Single Agent and in Combination with the Anti-PD-1 Antibody for the Treatment of Colorectal Cancer” (J Med Chem, 2023)

Target: T1, beta-catenin-B-cell lymphoma 9 protein complex (Homo sapiens, UniProt P35222)
T1 sequence (P35222 whole entry): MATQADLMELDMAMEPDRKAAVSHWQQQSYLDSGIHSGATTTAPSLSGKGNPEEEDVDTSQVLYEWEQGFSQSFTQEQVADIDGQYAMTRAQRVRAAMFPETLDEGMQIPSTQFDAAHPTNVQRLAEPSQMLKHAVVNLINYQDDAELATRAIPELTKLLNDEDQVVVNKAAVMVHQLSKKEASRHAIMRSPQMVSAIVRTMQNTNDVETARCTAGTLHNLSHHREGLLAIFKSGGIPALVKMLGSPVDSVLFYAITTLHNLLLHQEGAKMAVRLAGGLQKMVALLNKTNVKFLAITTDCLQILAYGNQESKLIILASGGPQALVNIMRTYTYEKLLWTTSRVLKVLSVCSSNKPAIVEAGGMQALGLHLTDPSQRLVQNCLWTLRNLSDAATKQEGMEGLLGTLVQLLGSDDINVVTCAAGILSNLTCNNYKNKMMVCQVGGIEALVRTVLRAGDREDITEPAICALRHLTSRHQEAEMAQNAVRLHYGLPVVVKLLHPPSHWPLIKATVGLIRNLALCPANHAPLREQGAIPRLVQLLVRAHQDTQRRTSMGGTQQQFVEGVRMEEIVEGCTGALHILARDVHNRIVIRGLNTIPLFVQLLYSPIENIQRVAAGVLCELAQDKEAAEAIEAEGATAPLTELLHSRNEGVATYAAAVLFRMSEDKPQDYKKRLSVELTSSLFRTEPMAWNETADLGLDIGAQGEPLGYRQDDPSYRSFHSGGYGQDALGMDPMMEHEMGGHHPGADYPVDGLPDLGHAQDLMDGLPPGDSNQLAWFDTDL
T1 sequence (O00512 whole entry): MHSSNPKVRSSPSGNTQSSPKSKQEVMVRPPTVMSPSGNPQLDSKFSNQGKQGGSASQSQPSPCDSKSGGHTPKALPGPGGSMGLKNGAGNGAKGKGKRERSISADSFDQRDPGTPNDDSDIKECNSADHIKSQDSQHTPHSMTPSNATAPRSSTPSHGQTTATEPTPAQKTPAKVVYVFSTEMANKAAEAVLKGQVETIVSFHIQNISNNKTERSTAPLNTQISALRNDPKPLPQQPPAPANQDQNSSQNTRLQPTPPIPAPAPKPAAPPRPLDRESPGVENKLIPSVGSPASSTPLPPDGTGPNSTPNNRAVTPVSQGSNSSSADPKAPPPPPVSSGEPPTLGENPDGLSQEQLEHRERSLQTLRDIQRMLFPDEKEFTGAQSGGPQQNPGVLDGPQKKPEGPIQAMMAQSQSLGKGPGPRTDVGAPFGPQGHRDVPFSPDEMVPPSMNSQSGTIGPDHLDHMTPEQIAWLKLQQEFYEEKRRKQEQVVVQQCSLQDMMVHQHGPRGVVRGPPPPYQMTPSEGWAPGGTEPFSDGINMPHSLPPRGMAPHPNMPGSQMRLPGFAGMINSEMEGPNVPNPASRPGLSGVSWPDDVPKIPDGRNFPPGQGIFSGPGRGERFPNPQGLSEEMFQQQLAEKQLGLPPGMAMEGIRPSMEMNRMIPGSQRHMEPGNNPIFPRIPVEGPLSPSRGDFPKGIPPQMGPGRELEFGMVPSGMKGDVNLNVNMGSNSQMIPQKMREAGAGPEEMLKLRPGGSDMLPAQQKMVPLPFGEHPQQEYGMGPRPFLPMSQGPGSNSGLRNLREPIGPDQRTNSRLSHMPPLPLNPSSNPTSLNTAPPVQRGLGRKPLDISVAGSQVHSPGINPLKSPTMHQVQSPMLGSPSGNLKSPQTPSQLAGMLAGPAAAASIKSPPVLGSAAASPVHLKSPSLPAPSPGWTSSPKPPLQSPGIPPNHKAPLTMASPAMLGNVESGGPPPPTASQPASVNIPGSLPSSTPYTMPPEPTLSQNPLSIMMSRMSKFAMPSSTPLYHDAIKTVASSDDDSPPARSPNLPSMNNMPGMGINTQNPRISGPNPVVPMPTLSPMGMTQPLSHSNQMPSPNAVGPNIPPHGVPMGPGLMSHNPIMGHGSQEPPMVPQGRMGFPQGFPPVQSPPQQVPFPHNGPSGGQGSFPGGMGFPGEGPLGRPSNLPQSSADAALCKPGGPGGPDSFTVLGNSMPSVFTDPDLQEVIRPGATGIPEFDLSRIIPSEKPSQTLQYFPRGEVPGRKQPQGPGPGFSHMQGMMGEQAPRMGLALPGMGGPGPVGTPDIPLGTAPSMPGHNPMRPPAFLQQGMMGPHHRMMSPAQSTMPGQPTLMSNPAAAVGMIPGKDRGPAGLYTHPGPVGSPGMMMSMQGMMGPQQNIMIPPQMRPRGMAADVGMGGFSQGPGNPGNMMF
Test: Inhibition of beta-catenin (unknown origin)/BCL9 (unknown origin) protein-protein interaction assessed as inhibition constant by AlphaScreen assay
Format: protein-complex assay

O=C(Nc1ccc(O[C@H]2CCNC2)c(-c2cccc(-c3nn[nH]n3)c2)c1)c1ccc(O[C@H]2CCNC2)c(-c2ccc(F)c(F)c2)c1
Ki: 470 nM
